Assay results from patent US9625449B2, “Determining the bioavailability of zinc (II) ions” (Colgate-Palmolive Company, priority 2014, dated 2017).

Columns and labels:
Assay type in all cases: physicochemical
[1] = Reaction of zincon with metal ions (colour change): Mg2+; settings: solution with Mg^2+
Source text: (§1) Certain dyes used to detect zinc ions also react with other metal ions. For example, Eriochrome Black T reacts with Mg^2+ and Ca^2+ ions, which are commonly encountered in biological tissues. Sources of calcium ions are frequently included in oral care compositions.

[2] = Reaction of zincon with metal ions (colour change): Fe2+; settings: solution with Fe^2+
Source text: as §1

[3] = Reaction of zincon with metal ions (colour change): Ca2+; settings: solution with Ca^2+
Source text: as §1

[4] = Reaction of zincon with metal ions (colour change): Co2+; settings: solution with Co^2+
Source text: as §1

[5] = Reaction of zincon with metal ions (colour change): Cu2+; settings: solution with Cu^2+
Source text: as §1

[6] = Reaction of zincon with metal ions (colour change): Zn2+; settings: solution with Zn^2+
Source text: as §1

[7] = Absorbance of zincon as function of pH (detection of zinc)
Source text: It has been reported in the literature that the working pH range for zincon is pH 8.5 to 9.5 (Yoe and Rush, 1952. “A new colorimetric reagent for zinc”, Analytica Chimica Acta, vol. 6, pp 526 to 527).

colour change of zincon [1]: did not undergo a colour change | colour change of zincon [2]: green solution | colour change of zincon [3]: did not undergo a colour change | colour change of zincon [4]: sky blue solution | colour change of zincon [6]: deep blue complex | Absorbance of sample at 610 nm ([7]; pH 7.0): 0.233 | Absorbance of sample at 610 nm ([7]; pH 7.5): 0.232 | Absorbance of sample at 610 nm ([7]; pH 8.0): 0.245 | Absorbance of sample at 610 nm ([7]; pH 8.5): 0.251 | Absorbance of sample at 610 nm ([7]; pH 9.5): 0.252
SMILES: O=C(O)c1ccccc1N=NC(=NNc1cc(S(=O)(=O)[O-])ccc1O)c1ccccc1.[Na+] [zincon, o-[α-(2-hydroxy-5-sulfophenylazo)-benzylidene hydrazino]benzoic acid]
colour change of zincon [5]: difficult to distinguish from that of Zn^2+
